Measurements: patent publication US9957236B2, “Selective inhibitors interfering with fibroblast growth factor receptor and FRS2 interaction for the prevention and treatment of cancer and other diseases” (LIMITED LIABILITY COMPANY “RUSSIAN PHARMACEUTICAL …, priority 2014, dated 2018)

How the values were obtained:
FRS2 = target: T1, FRS2 (Homo sapiens, UniProt Q8WU20); test: FRS2 phosphorylation in FGF-2/heparin-stimulated KATO III cells (Western blotting, Wes); assay type: cell-based; design: endogenous in cells
T1 sequence (Q8WU20 1-508): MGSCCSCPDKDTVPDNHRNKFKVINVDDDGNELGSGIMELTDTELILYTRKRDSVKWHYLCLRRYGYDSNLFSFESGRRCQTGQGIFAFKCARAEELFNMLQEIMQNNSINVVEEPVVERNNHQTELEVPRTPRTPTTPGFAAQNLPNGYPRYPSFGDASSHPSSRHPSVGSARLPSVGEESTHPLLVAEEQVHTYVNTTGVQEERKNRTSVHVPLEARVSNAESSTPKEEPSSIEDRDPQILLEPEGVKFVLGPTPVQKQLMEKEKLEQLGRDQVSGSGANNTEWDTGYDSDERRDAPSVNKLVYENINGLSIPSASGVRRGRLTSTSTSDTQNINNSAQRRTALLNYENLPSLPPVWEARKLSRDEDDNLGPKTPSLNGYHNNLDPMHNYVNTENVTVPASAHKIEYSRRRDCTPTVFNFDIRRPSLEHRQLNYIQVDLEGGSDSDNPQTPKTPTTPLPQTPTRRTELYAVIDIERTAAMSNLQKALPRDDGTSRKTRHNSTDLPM
Procedure: For assessment of the effect of RPT835 inhibitor characterized in this invention with formula II, stomach cancer cells KATO III, which express FGFR2, were used for FRS2 phosphorylation. […] RPT835 was added in various concentrations. A part of the cells was left without adding the inhibitor, and a part of the cells—without adding either inhibitor, or stimulating agents (control group).
Two standard methods for assessment of the phosphorylation level of FGFR and FRS2: • Western blotting using manual work; • Automatic capillary electrophoresis and immunodetection using automatic system Wes™ (ProteinSimple; SantaClara, Calif.).
The purpose of this research was assessment of specific action of inhibitor RPT835 specified in this invention with formula II, on interaction of […] and FRS2 and assessment of influence on interaction of other types of FGFR and FRS2. For the experiment, 2 cell lines were selected: • stomach cancer KATO III, expressing FGFR2, and • breast cancer MDA MB 134, expressing FGFR1.
The research procedure was the same as in the previous examples: the cells were cultivated in presence of RPT835 followed by stimulation with FGF-2 and heparin. The other part of the cells was cultivated in presence of RPT835. Phosphorylation of FGFR1 (in breast cancer cells) and FGFR2 (in stomach cancer cells), and also FRS2a (in the both cell lines) and some intracellular kinases (in breast cancer cells) was assessed using manual and automated Western blotting.

[1] = system: angiogenesis stimulated by bFGF; test: Matrigel implant angiogenesis stimulated by bFGF; assay type: in vivo, mice
Procedure: Eighteen hybrid mice of the 1 generation F1 (C57B1/6×DBA/2), males with a weight of 22-30 g are used in the research. The mice (nomenclature number M02.13.00011) were received from a branch of nursery “Stolbovaya”. The method described earlier was used in the experiment [Passaniti A., 1992]. The control and experiment groups had at least 3 mice. Aliquots (1,000 mcl) of Matrigel (BD Biosciences) containing heparin 60 conventional units/ml, VEGF (200 ng/ml, BD Biosciences) or bFGF (100 ng/ml, BD Biosciences) were prepared on ice. Matrigel containing heparin 60 conventional units/ml was used as negative control. Matrigel was injected in the mice subcutaneously into the side part of the back. After injection, Matrigel quickly forms single, hard gel-like implant. A weight of the inhibitor was dissolved in DMSO to concentration of 10^−2M. Aliquots were frozen down to −20° C. and unfrozen immediately before injection. Refreezing of the solution was not allowed. The tested and standard objects were administered intraperitoneally on the 0, 3 and 6 day of Matrigel impintation: Bevacizumab in a dose of 10 mg/kg and RPT835-15 mg/kg. Seven days after administration of Matrigel, the mice were put into sleep with diethyl ether to remove the implant. The implants were fixed for 24-36 hours in 10% neutral formalin and enclosed in paraffin for further histological research.

[2] = system: SVEC-4-10 endothelial cells; test: Crystal Violet proliferation assay, SVEC-4-10; assay type: cell-based; details: SVEC-4-10, strongly expresses FGFR2; bFGF 100 ng/ml, 7 days
Description: This research used additional cell lines: SKOV3 (ovarian cancer, ATCC # HTB-77), HS578T (breast cancer, ATCC # HTB-126), T47D (breast cancer, ATCC #HTB-1336), modified line of non-small cells lung cancer A549, line of metastatic melanoma of skin Mel Kor (RF Patent No. 2287578), and additional study of antiangiogenic activity—cell line SVEC-4-10 (endothelial cells, ATCC #CRL-2181).
The cells were cultivated in environment RPMI-1640 (PANECO) (SKOV3, HS578T, T47D, Mel-Kor) or DMEM (PANECO) (SVEC-4-10) containing 10% of embryonal serum cattle (FCS, HyClone), 2 mM glutamine (PANECO), antibiotics (100 IU/mL penicillin and […] streptomycin (all PANECO)) at 37° C. and 5% CO2. Cells at 70-80% monolayer were used for the experiments.
The cells were planted in low density (30 t of cells/ml) in triplets on a 96-cavity plate in an environment containing 0.1% of FCS serum. […] Growth of cells was determined by the modified “Crystal Violet mitogenic method” for 7 days after the experiment start. […] The dye was dissolved in ethanol and measured on a spectrophotometer at 540-560 nm. The curve of cell proliferative activity inhibition was built by the dependence of the percent of the cell quantity (Y axis) on concentration of inhibitor RPT835 in the cavity of the plate (X axis). […]

[3] = Matrigel + bFGF, 15 mg/kg intraperitoneally day 0, 3, 6, p<0.001

`Cc1cc([N+](=O)[O-])c(NS(=O)(=O)c2cccc(C(=O)O)c2)cc1-c1cccnc1` [RPT835, 3-(N-(4-methyl-2-nitro-5-(pyridin-3-yl)phenyl)sulfamoyl)benzoic acid] was tested, and the IC50 (FRS2; FGF-2 and heparin stimulation, read-out: concentration of the semi-maximal inhibiting (IC50) of FRS2 phosphorylation) was < 0.01 µM, the “Suppression of FRS2α phosphorylation” value (FRS2; concentration of 10 nM) was > 50% and the “phosphorylation of FRS2α (FGFR2 system)” value (FRS2; dose of 100 nM) was “completely decreased phosphorylation of FRS2α (FGFR2 system) to the initial level”. The “decrease of number of functional micro-vessels compared to the control group” value [1, 3] was “more than 2 fold”, the “decrease of number of migrated cells compared to the control group” value [1, 3] was “more than 2 fold” and the “decrease of number of tubular structures compared to the control group” value ([1]; Matrigel + bFGF, 15 mg/kg intraperitoneally day 0, 3, 6, p=0.016) was “more than 2 fold”. The “angiogenesis stimulated by bFGF” value ([1]; Matrigel implants in mice, intraperitoneally day 0, 3, 6, RPT835 15 mg/kg, Bevacizumab 10 mg/kg) was “effectively inhibited” and the “inhibition of proliferative activity” value [2] was “maximum inhibiting effect”.
